Measured values reported in PubChem BioAssay (NCI).
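Briefly, cells in 96-well plates were exposed to five compound concentrations for 48 h, and endpoints were estimated by linear interpolation. GI50 marks 50% less growth. TGI is the concentration that stops growth completely.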

Tests used:
Assay in all cases: NCI anticancer screen, dose series, 48 h
[1] = tested on: NCI/ADR-RES ovarian
[2] = tested on: SN12C renal
[3] = tested on: SR leukemia
[4] = tested on: ACHN renal
[5] = tested on: U251 CNS
[6] = tested on: BT-549 breast
[7] = tested on: T-47D breast
[8] = tested on: CCRF-CEM leukemia
[9] = tested on: OVCAR-4 ovarian
[10] = tested on: HT29 colon
[11] = tested on: OVCAR-8 ovarian

| SMILES | TGI [1] [µM] | TGI [2] [µM] | TGI [3] [µM] | TGI [4] [µM] | TGI [5] [µM] | TGI [6] [µM] | TGI [7] [µM] | TGI [8] [µM] | TGI [9] [µM] | TGI [10] [µM] | TGI [11] [µM] | GI50 [4] [µM] |
| --- | --- | --- | --- | --- | --- | --- | --- | --- | --- | --- | --- | --- |
| N=C(c1cccs1)C1(N2CCCCC2)CCCCC1 | 44.7 | 88.6 | 37.1 | 30.5 | 30 | 41.9 | 27.1 | 36.2 | 54.9 | 34.5 |  |  |
| COc1ccc(N2C(=O)C3CC4=CC(=O)C[C@H]4[C@H]32)cc1 (stereo partly drawn) | > 100 | > 100 | > 100 | > 100 | > 100 | > 100 | > 100 |  | > 100 |  | > 100 |  |
| C=CCN1CCC2(CC1)NC(=O)c1ccccc1O2 | > 100 | > 100 | > 100 | > 100 | > 100 | > 100 | > 100 | > 100 | > 100 | > 100 | > 100 |  |
| CCOC(=O)CC[C@H](N)C(=O)N[C@H](Cc1ccc(N(CCCl)CCCl)cc1)C(=O)OCC | 11.3 | 16.7 | > 33.6 | 2.68 | > 33.7 | > 38 | 6.55 | > 100 | 11.2 | 13.3 |  | 0.499 |
| O=P1(c2ccccc2)C2=CCC=CC2C(c2ccccc2)N1Cc1ccccc1 (stereo not drawn) | 32.2 | 31.5 | 53.5 | 30.4 | 30.7 | 31.6 | 36.8 | 34.9 |  | 24.2 | 38.1 |  |
| CN1C(=O)N(C)C2(CCN(CCCCCCF)CC2)C1=O | > 100 | > 100 | > 100 | > 100 | > 100 | > 100 | > 100 | > 100 |  | > 100 | > 100 |  |
| COC(=O)[C@H](CCSC)NC(=O)c1ccc(CNC(=O)/C(C)=C/c2ccccc2)cc1 | 68.5 | > 100 | > 100 | > 100 | > 100 | 60.9 | > 100 | > 100 | > 100 | 42.7 | 51.4 |  |
| COC(=O)C(Cc1nc2ccccc2[nH]c1=O)C(=O)C(=O)Nc1cc(C(F)(F)F)ccc1Cl (stereo not drawn) | 53.3 | 54.8 | > 100 | 24.5 | 66.6 | 44.5 | 44.7 | 48.2 | 27.9 | 28.6 | 30 |  |
| CCCCCCCCCCCCCCCCP(=O)([O-])OCC[N+](C)(C)C | 34.7 | 26.2 | 29.4 | 31.9 | 31.2 | 22.6 | 35.5 | 24.7 | 34.7 | 25.5 | 32.7 |  |
| CC1CC[C@@]2(OC1)OC1C[C@H]3[C@@H]4CCC5CC(O)CC[C@]5(C)[C@H]4C/C(=N\N(C)C)[C@]3(C)C1[C@@H]2C (stereo partly drawn) | 41.4 | 64.7 | 60.6 | > 100 | > 100 | 83.5 | > 100 | > 100 | > 100 | 39.9 |  |  |
| CCOP(=O)(OCC)C(C)(C)OC(=O)NC#N | > 100 | > 100 | > 100 | > 100 | > 100 | > 100 | > 100 | > 100 | > 100 | > 100 | > 100 |  |
| C/C=C1\CC(C(=O)OCC)CCCCCCCCCCC1=O (stereo not drawn) | > 100 | > 100 |  | > 100 | > 100 | > 100 | > 100 | > 100 | > 100 | > 100 | > 100 |  |
| COc1ccc(C[C@@H]2OC3(C=CC(=O)C=C3)O[C@H]2Cc2ccc(OC)cc2)cc1 | 2.64 | 3.16 | 1.84 | 1.16 | 2.75 | 0.505 | > 100 | 0.521 | 2.14 | 2.18 | 0.645 |  |
| CC(/C=N/NC1=NCCCN1)=N\NC1=NCCCN1 | > 100 | > 100 | > 100 | > 100 | > 100 | > 100 | > 100 | > 100 | > 100 | > 100 | > 100 |  |
| COc1cccc(-c2cc(=O)c3cc(Cl)cnc3[nH]2)c1 | 0.783 | > 100 | 20.4 | 55.4 | 23.5 | > 100 | > 100 | > 100 | 76.3 | 13.8 | 43.9 |  |
| COc1cc2c(cc1OCCCCCOc1cc3c(cc1OC)C(=O)N1CCC[C@H]1CN3)N=C[C@@H]1CCCN1C2=O | > 100 | 18.7 | 1.11 | 27.6 | 5.24 | 34.9 | > 100 | 0.592 | > 100 | 37.3 | 24.2 |  |
| C=CCC(SC)C1=C(C)C(=O)c2ccccc21 (stereo not drawn) |  | > 10 | > 10 | > 10 | > 10 | > 10 | > 10 | > 10 |  | > 10 | > 10 |  |
| COP(C)(=O)C(Cc1c[nH]c2ccccc12)NC(=O)OCc1ccccc1 (stereo not drawn) | > 100 | > 100 |  | > 100 | > 100 | > 100 | > 100 | > 100 | > 100 | > 100 | > 100 |  |
| CC(=O)OCC1OC(N2C(S)=C(C#N)C(c3ccco3)C(C(C)=O)=C2c2ccccc2)C(OC(C)=O)C(OC(C)=O)C1OC(C)=O (stereo not drawn) | > 100 | > 100 | > 100 |  | > 100 | > 100 | > 100 | > 100 | 44.8 | > 100 | > 100 |  |
| CCCC1(N)CC(OC)OC(C)C1O (stereo not drawn) | > 100 | > 100 | > 100 | > 100 | > 100 | > 100 | > 100 | > 100 |  | > 100 | > 100 |  |
| Cc1sc2nc3n(c(=O)c2c1C)N=C(c1ccc([N+](=O)[O-])cc1)CS3 | > 100 | > 100 | > 100 | > 100 | > 100 | > 100 | > 100 | > 100 |  | > 100 | > 100 |  |
